In US10544143B2, “4-azaindole compounds” (BRISTOL-MYERS SQUIBB COMPANY, priority 2017, dated 2020):
Where two headings read alike, the source gives them in different places. Each block holds one compound with its values, some of them ahead of it.

Columns and labels:
human TLR8 = human TLR8 (Homo sapiens (Human), UniProt Q9NR97); test: TLR8 inhibition reporter assay (HEK-Blue SEAP);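 further: SEAP driven by IFN-β minimal promoter carrying NF-κB and AP-1 sites, compounds dosed 0.05 nM to 50 µM for 22 h, inhibition scaled between agonist-plus-DMSO and reference-inhibitor wells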
human TLR7 = human TLR7 (Homo sapiens (Human), UniProt Q9NYK1); test: TLR7 inhibition reporter assay (HEK-Blue SEAP); type: cell-based
human TLR9 = human TLR9 (Homo sapiens (Human), UniProt Q9NR96); test: TLR9 inhibition reporter assay (HEK-Blue SEAP);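 further: SEAP driven by an IFN-β minimal promoter with NF-κB and AP-1 sites, read after 22 h, compounds dosed 0.05 nM–50 µM, inhibition scaled between agonist plus DMSO and reference-inhibitor wells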
[1] = read-out: TLR8 IC50, HEK-Blue cells overexpressing human TLR8, SEAP reporter, R848 15.9 μM
[2] = HEK-Blue cells overexpressing human TLR7, SEAP reporter, gardiquimod 7.5 μM
[3] = read-out: TLR9 IC50, HEK-Blue cells overexpressing human TLR9, SEAP reporter, ODN2006 5 nM
[4] = TLR8 IC50, HEK-Blue cells overexpressing human TLR8, R848 15.9 μM stimulation, SEAP reporter
[5] = HEK-Blue cells overexpressing human TLR7, gardiquimod 7.5 μM stimulation, SEAP reporter
[6] = TLR9 IC50, HEK-Blue cells overexpressing human TLR9, ODN2006 5 nM stimulation, SEAP reporter
[7] = read-out: TLR8 IC50, HEK-Blue cells overexpressing human TLR8, R848 15.9 μM stimulation, SEAP reporter
[8] = read-out: TLR9 IC50, HEK-Blue cells overexpressing human TLR9, ODN2006 5 nM stimulation, SEAP reporter
[9] = TLR8 IC50, HEK-Blue human TLR8 cells, R848 15.9 μM
[10] = HEK-Blue human TLR7 cells, gardiquimod 7.5 μM
[11] = TLR9 IC50, HEK-Blue human TLR9 cells, ODN2006 5 nM
[12] = read-out: TLR8 IC50, HEK-Blue human TLR8 cells, R848 15.9 μM
[13] = read-out: TLR9 IC50, HEK-Blue human TLR9 cells, ODN2006 5 nM

human TLR8, sequence (Q9NR97 27-1041): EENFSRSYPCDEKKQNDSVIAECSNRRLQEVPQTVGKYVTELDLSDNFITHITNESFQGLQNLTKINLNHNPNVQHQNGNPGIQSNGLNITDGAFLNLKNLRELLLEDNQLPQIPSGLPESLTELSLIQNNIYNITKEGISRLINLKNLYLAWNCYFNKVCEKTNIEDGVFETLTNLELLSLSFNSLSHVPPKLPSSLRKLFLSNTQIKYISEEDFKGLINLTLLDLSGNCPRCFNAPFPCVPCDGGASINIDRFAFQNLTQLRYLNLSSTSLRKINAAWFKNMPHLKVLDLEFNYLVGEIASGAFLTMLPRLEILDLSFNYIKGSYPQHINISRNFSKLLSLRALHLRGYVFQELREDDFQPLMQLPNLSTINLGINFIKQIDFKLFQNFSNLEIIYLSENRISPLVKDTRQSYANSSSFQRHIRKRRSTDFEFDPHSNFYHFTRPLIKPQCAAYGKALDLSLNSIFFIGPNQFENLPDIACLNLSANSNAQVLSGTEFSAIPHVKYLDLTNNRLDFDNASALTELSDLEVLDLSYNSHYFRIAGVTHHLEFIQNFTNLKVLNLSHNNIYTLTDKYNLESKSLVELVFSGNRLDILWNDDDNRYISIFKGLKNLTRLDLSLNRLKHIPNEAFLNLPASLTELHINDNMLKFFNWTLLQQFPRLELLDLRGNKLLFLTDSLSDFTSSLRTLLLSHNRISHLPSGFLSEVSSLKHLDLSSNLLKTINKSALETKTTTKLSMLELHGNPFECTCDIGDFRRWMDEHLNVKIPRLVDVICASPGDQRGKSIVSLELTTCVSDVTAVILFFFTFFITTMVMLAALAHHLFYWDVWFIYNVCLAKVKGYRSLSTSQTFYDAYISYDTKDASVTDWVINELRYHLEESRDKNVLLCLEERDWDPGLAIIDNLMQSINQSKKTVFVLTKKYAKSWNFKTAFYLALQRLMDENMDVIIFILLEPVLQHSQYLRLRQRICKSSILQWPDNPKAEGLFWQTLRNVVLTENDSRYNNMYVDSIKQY
human TLR7, sequence (Q9NYK1 27-1049): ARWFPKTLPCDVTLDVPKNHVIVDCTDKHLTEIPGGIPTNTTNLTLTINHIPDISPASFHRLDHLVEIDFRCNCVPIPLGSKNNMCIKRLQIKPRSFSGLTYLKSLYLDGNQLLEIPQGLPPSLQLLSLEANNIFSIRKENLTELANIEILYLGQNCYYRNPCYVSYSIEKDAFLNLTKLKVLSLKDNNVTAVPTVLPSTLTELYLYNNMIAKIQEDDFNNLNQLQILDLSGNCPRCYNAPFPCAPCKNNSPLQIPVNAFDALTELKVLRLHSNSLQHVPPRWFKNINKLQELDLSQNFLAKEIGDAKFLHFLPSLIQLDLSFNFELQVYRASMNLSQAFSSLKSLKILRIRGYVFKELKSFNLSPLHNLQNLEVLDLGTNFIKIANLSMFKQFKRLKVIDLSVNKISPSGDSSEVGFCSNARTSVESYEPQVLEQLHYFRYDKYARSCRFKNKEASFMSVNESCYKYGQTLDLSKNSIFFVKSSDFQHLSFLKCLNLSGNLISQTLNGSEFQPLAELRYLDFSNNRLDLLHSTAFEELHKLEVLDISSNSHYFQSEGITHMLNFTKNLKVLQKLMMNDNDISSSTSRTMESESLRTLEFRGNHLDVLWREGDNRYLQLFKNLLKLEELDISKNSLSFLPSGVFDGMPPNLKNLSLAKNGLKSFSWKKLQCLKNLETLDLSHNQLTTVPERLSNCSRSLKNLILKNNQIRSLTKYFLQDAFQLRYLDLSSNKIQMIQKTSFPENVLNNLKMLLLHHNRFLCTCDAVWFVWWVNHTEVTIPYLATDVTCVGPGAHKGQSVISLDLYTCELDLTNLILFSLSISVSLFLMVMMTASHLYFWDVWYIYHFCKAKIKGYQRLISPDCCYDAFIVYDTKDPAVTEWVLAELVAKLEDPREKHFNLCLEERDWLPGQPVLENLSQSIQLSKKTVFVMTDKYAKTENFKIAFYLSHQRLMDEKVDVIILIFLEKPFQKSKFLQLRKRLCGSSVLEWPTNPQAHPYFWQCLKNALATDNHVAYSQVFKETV
human TLR9, sequence (Q9NR96 26-1032): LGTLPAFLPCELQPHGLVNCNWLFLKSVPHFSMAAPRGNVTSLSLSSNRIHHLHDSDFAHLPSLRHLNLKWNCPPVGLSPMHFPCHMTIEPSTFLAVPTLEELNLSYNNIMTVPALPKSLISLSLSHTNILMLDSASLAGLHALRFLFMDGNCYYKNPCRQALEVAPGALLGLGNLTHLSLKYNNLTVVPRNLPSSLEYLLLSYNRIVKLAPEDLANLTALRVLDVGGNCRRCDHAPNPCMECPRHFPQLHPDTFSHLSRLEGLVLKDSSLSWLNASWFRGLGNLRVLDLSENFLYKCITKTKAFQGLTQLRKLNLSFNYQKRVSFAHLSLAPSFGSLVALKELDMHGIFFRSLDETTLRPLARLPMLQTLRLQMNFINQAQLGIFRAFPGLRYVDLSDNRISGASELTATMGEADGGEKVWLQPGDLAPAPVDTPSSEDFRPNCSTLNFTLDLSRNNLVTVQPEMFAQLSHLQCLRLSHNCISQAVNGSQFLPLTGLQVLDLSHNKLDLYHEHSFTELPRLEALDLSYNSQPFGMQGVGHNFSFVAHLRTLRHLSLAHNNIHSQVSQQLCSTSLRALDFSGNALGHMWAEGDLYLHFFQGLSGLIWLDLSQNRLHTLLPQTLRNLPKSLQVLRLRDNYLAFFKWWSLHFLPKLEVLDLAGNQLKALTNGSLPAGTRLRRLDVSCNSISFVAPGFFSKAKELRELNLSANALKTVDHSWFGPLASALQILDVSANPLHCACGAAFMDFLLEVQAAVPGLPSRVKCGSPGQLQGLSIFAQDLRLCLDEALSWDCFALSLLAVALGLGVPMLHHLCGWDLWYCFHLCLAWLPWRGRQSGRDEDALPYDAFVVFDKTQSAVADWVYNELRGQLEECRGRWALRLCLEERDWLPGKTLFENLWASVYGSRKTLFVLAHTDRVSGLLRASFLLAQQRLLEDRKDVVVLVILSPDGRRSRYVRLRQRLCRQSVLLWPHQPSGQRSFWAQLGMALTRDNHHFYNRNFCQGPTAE

Compound: 4-((3-isopropyl-2-(8-methoxy-[1,2,4]triazolo[1,5-a]pyridin-6-yl)-1H-pyrrolo[3,2-b]pyridin-5-yl)oxy)-N,N-dipropylcyclohexan-1-amine [Example 605]
IC50 (human TLR8; [1]): 0.017 µM
IC50 (human TLR7; [2]): 0.013 µM
IC50 (human TLR9; [3]): 4.24 µM

Compound: COc1cc(-c2[nH]c3ccc(C4CCC(N)C4)nc3c2C(C)C)cn2ncnc12 (racemic) [Example 7, 3-(3-isopropyl-2-(8-methoxy-[1,2,4]triazolo[1,5-a]pyridin-6-yl)-1H-pyrrolo[3,2-b]pyridin-5-yl)cyclopentan-1-amine]
IC50 (human TLR8; [4]): 0.052 µM
IC50 (human TLR7; [5]): 0.0044 µM
IC50 (human TLR9; [6]): 8.12 µM

Compound: COc1cc(-c2[nH]c3ccc(C4CCC(N)C4)nc3c2C(C)C)cn2ncnc12 (racemic) [Example 9, 3-(3-isopropyl-2-(8-methoxy-[1,2,4]triazolo[1,5-a]pyridin-6-yl)-1H-pyrrolo[3,2-b]pyridin-5-yl)cyclopentan-1-amine]
IC50 (human TLR8; [4]): 0.0082 µM
IC50 (human TLR7; [5]): 0.0017 µM
IC50 (human TLR9; [6]): 2.25 µM

Compound: Cc1c(-c2[nH]c3ccc(N4CCC(NC5COC5)C4)nc3c2C(C)C)cn2ncnc2c1C (racemic) [Example 164, 1-(2-(7,8-dimethyl-[1,2,4]triazolo[1,5-a]pyridin-6-yl)-3-isopropyl-1H-pyrrolo[3,2-b]pyridin-5-yl)-N-(oxetan-3-yl)pyrrolidin-3-amine]
IC50 (human TLR8; [7]): 0.002 µM
IC50 (human TLR7; [5]): 0.033 µM
IC50 (human TLR9; [8]): 19.8 µM

Compound: COc1cc(-c2[nH]c3ccc(C4CCC(N)C4)nc3c2C(C)C)cn2ncnc12 (single isomer, unassigned) [Example 8, 3-(3-isopropyl-2-(8-methoxy-[1,2,4]triazolo[1,5-a]pyridin-6-yl)-1H-pyrrolo[3,2-b]pyridin-5-yl)cyclopentan-1-amine]
IC50 (human TLR8; [4]): 0.021 µM
IC50 (human TLR7; [5]): 0.0047 µM
IC50 (human TLR9; [6]): 8.55 µM

Compound: CNC1CCC(c2ccc3[nH]c(-c4cn5ncnc5c(C)c4C)c(C(C)C)c3n2)CC1 (single isomer, unassigned) [Example 367, 4-(2-(7,8-dimethyl-[1,2,4]triazolo[1,5-a]pyridin-6-yl)-3-isopropyl-1H-pyrrolo[3,2-b]pyridin-5-yl)-N-methylcyclohexanamine]
IC50 (human TLR8; [7]): 0.0035 µM
IC50 (human TLR7; [5]): 0.0015 µM
IC50 (human TLR9; [8]): 0.838 µM

Compound: CNC1CCC(c2ccc3[nH]c(-c4cn5ncnc5c(C)c4C)c(C(C)C)c3n2)CC1 (single isomer, unassigned) [Example 369, 4-(2-(7,8-dimethyl-[1,2,4]triazolo[1,5-a]pyridin-6-yl)-3-isopropyl-1H-pyrrolo[3,2-b]pyridin-5-yl)-N-methylcyclohexanamine]
IC50 (human TLR8; [7]): 0.0013 µM
IC50 (human TLR7; [5]): 0.00046 µM
IC50 (human TLR9; [8]): 0.402 µM

Compound: Cc1c(-c2[nH]c3ccc(C4CCC(N(C)C5COC5)CC4)nc3c2C(C)C)cn2ncnc2c1C (single isomer, unassigned) [Example 424, N-(4-(2-(7,8-dimethyl-[1,2,4]triazolo[1,5-a]pyridin-6-yl)-3-isopropyl-1H-pyrrolo[3,2-b]pyridin-5-yl)cyclohexyl)-N-methyloxetan-3-amine]
IC50 (human TLR8; [1]): 0.00074 µM
IC50 (human TLR7; [2]): 0.00089 µM
IC50 (human TLR9; [3]): 1.53 µM

Compound: Cc1c(-c2[nH]c3ccc(C4CCC(N(C)C5COC5)CC4)nc3c2C(C)C)cn2ncnc2c1C (single isomer, unassigned) [Example 430, N-(4-(2-(7,8-dimethyl-[1,2,4]triazolo[1,5-a]pyridin-6-yl)-3-isopropyl-1H-pyrrolo[3,2-b]pyridin-5-yl)cyclohexyl)-N-methyloxetan-3-amine]
IC50 (human TLR8; [1]): 0.014 µM
IC50 (human TLR7; [2]): 0.013 µM
IC50 (human TLR9; [3]): 15.1 µM

Compound: Cc1c(-c2[nH]c3ccc(N4CC(N5CCOCC5)C4)nc3c2C(C)C)cn2ncnc2c1C [Example 39, 4-(1-(2-(7,8-dimethyl-[1,2,4]triazolo[1,5-a]pyridin-6-yl)-3-isopropyl-1H-pyrrolo[3,2-b]pyridin-5-yl)azetidin-3-yl)morpholine]
IC50 (human TLR8; [7]): 0.0048 µM
IC50 (human TLR7; [5]): 0.04 µM

Compound: CC(C)c1c(-c2cn(C)c3ncccc23)[nH]c2ccc(N3CCC(N(CC#N)CC#N)CC3)nc12 [Example 52]
IC50 (human TLR8; [7]): 0.02 µM
IC50 (human TLR7; [5]): 0.0079 µM

Compound: COc1cc(-c2[nH]c3ccc(N4CCN(C5CCOC5)CC4)nc3c2C(C)C)cn2ncnc12 (stereo not drawn) [Example 103]
IC50 (human TLR8; [7]): 0.0026 µM
IC50 (human TLR7; [5]): 0.0073 µM

Compound: CC(C)c1c(-c2cc(CO)c3ncnn3c2)[nH]c2ccc(C3CCC(NCC(=O)N(C)C)CC3)nc12 (stereo not drawn) [Example 216]
IC50 (human TLR8; [7]): 0.018 µM
IC50 (human TLR9; [8]): 0.416 µM

Compound: Cc1cnc(CNC2CCC(c3ccc4[nH]c(-c5cc(CO)c6ncnn6c5)c(C(C)C)c4n3)CC2)cn1 (stereo not drawn) [Example 217]
IC50 (human TLR8; [7]): 0.0086 µM
IC50 (human TLR9; [8]): 0.522 µM

Compound: CC(C)c1c(-c2cc(CO)c3ncnn3c2)[nH]c2ccc(C3CCC(NCC(=O)N(C)C)CC3)nc12 (stereo not drawn) [Example 222]
IC50 (human TLR8; [7]): 0.021 µM
IC50 (human TLR9; [8]): 0.657 µM

Compound: COc1cc(-c2[nH]c3ccc(C4CCC(NCC5(S(C)(=O)=O)CC5)CC4)nc3c2C(C)C)cn2ncnc12 (stereo not drawn) [Example 223]
IC50 (human TLR8; [7]): 0.0014 µM
IC50 (human TLR9; [8]): 0.485 µM

Compound: COc1cc(-c2[nH]c3cc(C)c(C4CCC(NCC(C)(C)O)CC4)nc3c2C(C)C)cn2ncnc12 (stereo not drawn) [Example 321]
IC50 (human TLR8; [7]): 0.003 µM
IC50 (human TLR9; [8]): 1.04 µM

Compound: COCCNC1CCC(c2nc3c(C(C)C)c(-c4cc(OC)c5ncnn5c4)[nH]c3cc2C)CC1 (stereo not drawn) [Example 335]
IC50 (human TLR8; [7]): 0.004 µM
IC50 (human TLR9; [8]): 1.93 µM

Compound: Cc1c(-c2[nH]c3ccc(C4CCC(N(C)Cc5ncccn5)CC4)nc3c2C(C)C)cn2ncnc2c1C (stereo not drawn) [Example 417]
IC50 (human TLR8; [1]): 0.0071 µM
IC50 (human TLR9; [3]): 9.5 µM

Compound: Cc1c(-c2[nH]c3ccc(C4CCC(N(C)Cc5ncccn5)CC4)nc3c2C(C)C)cn2ncnc2c1C (stereo not drawn) [Example 418]
IC50 (human TLR8; [1]): 0.0039 µM
IC50 (human TLR9; [3]): 2.87 µM

Compound: Cc1c(-c2[nH]c3ccc(N4C[C@H]5C[C@@H](C4)N5C(=O)CN(C)C)nc3c2C(C)C)cn2ncnc2c1C [Example 754]
IC50 (human TLR8; [1]): 0.0017 µM
IC50 (human TLR9; [3]): 5.43 µM

Compound: Cc1c(-c2[nH]c3ccc(N4C[C@H]5C[C@@H](C4)N5C(C)C)nc3c2C(C)C)cn2ncnc2c1C [Example 755]
IC50 (human TLR8; [1]): 0.0062 µM
IC50 (human TLR9; [3]): 3.73 µM

Continued, values first:

IC50 (human TLR8; [9]): 0.0023 µM
IC50 (human TLR7; [10]): 0.0015 µM
IC50 (human TLR9; [11]): 8.55 µM
Compound: [2H]C([2H])([2H])N(CC(=O)N1CCN(c2ccc3[nH]c(-c4cn5ncnc5c(C)c4C)c(C(C)C)c3n2)CC1)C([2H])([2H])[2H] (single isomer, unassigned) [Example 831]

IC50 (human TLR8; [9]): 0.0013 µM
IC50 (human TLR7; [10]): 0.0011 µM
IC50 (human TLR9; [11]): 7.13 µM
Compound: [2H]C1([2H])N(C(=O)CN(C)C)C([2H])([2H])C([2H])([2H])N(c2ccc3[nH]c(-c4cn5ncnc5c(C)c4C)c(C(C)C)c3n2)C1([2H])[2H] (single isomer, unassigned) [Example 858]

IC50 (human TLR8; [9]): 0.0015 µM
IC50 (human TLR7; [10]): 0.00097 µM
IC50 (human TLR9; [11]): 7.31 µM
Compound: [2H]C([2H])([2H])N(CC(=O)N1C([2H])([2H])C([2H])([2H])N(c2ccc3[nH]c(-c4cn5ncnc5c(C)c4C)c(C(C)C)c3n2)C([2H])([2H])C1([2H])[2H])C([2H])([2H])[2H] (single isomer, unassigned) [Example 859]

IC50 (human TLR8; [9]): 0.00059 µM
IC50 (human TLR7; [10]): 0.0012 µM
IC50 (human TLR9; [11]): 12.2 µM
Compound: [2H]C([2H])([2H])N(C([2H])([2H])[2H])C([2H])([2H])C(=O)N1CCN(c2ccc3[nH]c(-c4cn5ncnc5c(C)c4C)c(C(C)C)c3n2)CC1 (single isomer, unassigned) [Example 888]

IC50 (human TLR8; [9]): 0.00076 µM
IC50 (human TLR7; [10]): 0.0015 µM
IC50 (human TLR9; [11]): 9.84 µM
Compound: [2H]C([2H])(C(=O)N1CCN(c2ccc3[nH]c(-c4cn5ncnc5c(C)c4C)c(C(C)C)c3n2)CC1)N(C)C (single isomer, unassigned) [Example 889]

IC50 (human TLR8; [9]): 0.0014 µM
IC50 (human TLR7; [10]): 0.0018 µM
IC50 (human TLR9; [11]): 14.7 µM
Compound: [2H]C([2H])(C(=O)N1C([2H])([2H])C([2H])([2H])N(c2ccc3[nH]c(-c4cn5ncnc5c(C)c4C)c(C(C)C)c3n2)C([2H])([2H])C1([2H])[2H])N(C)C (single isomer, unassigned) [Example 890]

IC50 (human TLR8; [1]): 0.0055 µM
IC50 (human TLR9; [3]): 2.18 µM
Compound: Cc1c(-c2[nH]c3ccc(C4CCC(N5CC6(COC6)C5)CC4)nc3c2C(C)C)cn2ncnc2c1C (stereo not drawn) [Example 435]

IC50 (human TLR8; [1]): 0.027 µM
IC50 (human TLR9; [3]): 8.94 µM
Compound: Cc1c(-c2[nH]c3ccc(C4CCC(N5CC(C#N)C5)CC4)nc3c2C(C)C)cn2ncnc2c1C (stereo not drawn) [Example 436]

IC50 (human TLR8; [1]): 0.011 µM
IC50 (human TLR9; [3]): 3.75 µM
Compound: Cc1c(-c2[nH]c3ccc(C4CCC(N5CC6(COC6)C5)CC4)nc3c2C(C)C)cn2ncnc2c1C (stereo not drawn) [Example 437]

IC50 (human TLR8; [1]): 0.057 µM
IC50 (human TLR7; [2]): 0.015 µM
Compound: Cc1c(-c2[nH]c3ccc(C4CCC(N5CCN(C)C(=O)C5)CC4)nc3c2C(C)C)cn2ncnc2c1C (stereo not drawn) [Example 443]

IC50 (human TLR8; [1]): 0.099 µM
IC50 (human TLR7; [2]): 0.046 µM
Compound: Cc1c(-c2[nH]c3ccc(C4CCC(N(CCO)CC(=O)N(C)C)CC4)nc3c2C(C)C)cn2ncnc2c1C (stereo not drawn) [Example 468]

IC50 (human TLR8; [1]): 0.023 µM
IC50 (human TLR9; [3]): 5.7 µM
Compound: Cc1cc(-c2[nH]c3ccc(C4CCN(C5COC5)CC4)nc3c2C(C)C)cn(C)c1=O [Example 528]

IC50 (human TLR8; [12]): 0.0029 µM
IC50 (human TLR9; [13]): 43.2 µM
Compound: Cc1c(-c2[nH]c3ccc(N4CCN(C(=O)CN5CCC(F)C5)CC4)nc3c2C(C)C)cn2ncnc2c1C (stereo not drawn) [Example 917]

IC50 (human TLR8; [12]): 0.0063 µM
IC50 (human TLR9; [13]): 20.6 µM
Compound: Cc1c(-c2[nH]c3ccc(N4CCN(C(=O)CN5CC6(CCO6)C5)CC4)nc3c2C(C)C)cn2ncnc2c1C [Example 918]
